Results: PMC12588083, “Validated antimalarial drug target discovery using genome-scale metabolic modeling” (Antimicrobial Agents and Chemotherapy, 2025)

Tests used:
[1] = target: recombinant PfUCK (P. falciparum UMP-CMP kinase, PfUCK-Δ23) (Plasmodium falciparum, UniProt Q8I231); assay: Inhibition constant (Ki) determination, coupled PK/LDH NADH assay, recombinant PfUCK; format: biochemical; conditions: for Ki—PfUCK: Table 4, benzoylacetonitrile derivatives, 1 mM CMP, competitive equation
Procedure: The hydrophobic core at the protein’s N-terminus may cause poor expression and low solubility in E. coli. Therefore, a truncated gene was created where the ORF began at amino acid residues 24–371, encoding a 348 amino acid protein. […] Briefly, protein expression was induced with isopropyl-D-thiogalactoside, incubated at 16°C with shaking at 200 RPM for 20 hours, and the cell pellet resuspended in binding buffer (50 mM Tris [pH 7.6], 300 mM NaCl, 20 mM imidazole, 5% glycerol, and 0.075% β-mercaptoethanol), with cell disruption using an Avestin C3 Cell Disrupter. Cell debris was removed, and the UCK was purified by Ni-NTA affinity purification. The protein was eluted from the column using a linear gradient of imidazole ([…]) in elution buffer (50 mM Tris [pH 7.6], 300 mM NaCl, 5% glycerol, and 0.075% β-mercaptoethanol). […] The concentrated protein was then stored at −70°C in a storage buffer (25 mM Tris-HCl, 50 mM KCl, and 20% glycerol; pH 7.0).
The final concentration of dimethyl sulfoxide (Merck, Catalog number 472301) in the assay reaction was maintained at 1%.

[2] = system: synchronised Plasmodium falciparum 3D7 cultures; assay: In vitro flux measurements of glucose and amino acids in spent media; format: cell-based; conditions: ± SD, positive = into infected red blood cell, negative = efflux into media; for flux 6 - 18 hps: early to mid-ring stage; for flux 42 - 48 hps: late schizont stage; for flux 30 - 36 hps: late trophozoite stage
Procedure: Cultures were synchronized with 5% sorbitol ([36]). Synchronized cultures with a total volume of 18 mL at 1% parasitemia and 5% hematocrit were placed in nonvented 75 cm^2 tissue culture flasks (Nunclon). Red blood cells at 5% hematocrit were used as control. One milliliter of culture was collected at time 0 and every 6 hours until 48 hours post synchronization. The collected sample was placed in a 1.5 mL microcentrifuge tube and centrifuged at 3,000 RPM for 2 minutes. The spent media were collected and stored at −80°C prior to analysis. Three biological replicates were analyzed.
A glucose assay on the spent media was performed using a glucose oxidase-peroxidase format assay kit (Megazyme). Amino acid concentrations in the spent media were determined using an Ultimate 3000 High-Performance Liquid Chromatography system (Dionex, UK). A ramp gradient reverse-phase chromatography was done with an Acclaim 120 C18 (Dionex, UK) 100 × 2.1 mm column (3 µm particle size, 120 Å pore size) stationary phase. Eluent A (10 mM Na2HPO4, 10 mM Na2HB4O7·10 H2O, 0.5 mM NaN3, pH 8.2) and eluent B (45% methanol [vol/vol] 45% acetonitrile [vol/vol] in water) constituted the mobile phase (Table S1).
Samples were derivatized manually within 10 minutes prior to chromatography. The derivatization procedure was done in a 1.5 mL microcentrifuge tube at room temperature by adding the following reagents in this particular order:
Spent media for both infected and uninfected (control) samples were assayed for glucose and amino acid concentrations as detailed above. The net metabolite flux from time 0 ( t0 ) to time n ( tn ) was calculated using the formula:
fluxt0-tn=vt0×∆Ci-∆Cu/gDWt0×∆t
The parasite mass gDWt0 was determined using the calculated number of parasites based on the parasitemia, hematocrit, and the volume at t0 :
In this case, it was assumed for simplicity that each infected RBC contained only one parasite. […] Flux calculations were done to represent the three main blood stage forms: the change in concentration from t6 to t18 was used to calculate the early to mid-ring stage flux, from t30 to t36 for the late trophozoite, and from t42 to t48 for the late schizont stage. […] A positive flux represents the entry of metabolites into the model, while a negative flux represents the movement of metabolites into the external environment.
Supplementary Table 5 Experimental glucose and amino acid flux measurements. […] A positive flux indicates movement of the metabolite into the infected red blood cell while a negative flux indicates efflux of the metabolite into the media.

P. falciparum 3D7 = assay: Antiplasmodial activity (IC50), SYBR Green fluorescence, 48 hours; format: cell-based, Plasmodium falciparum
Procedure: P. falciparum 3D7 parasites underwent two synchronization cycles with D-sorbitol initiating the inhibitor testing. Parasitemia and hematocrit were adjusted to 0.5% and 3%, respectively. Synchronized ring parasites were cultured in 96-well plates in complete RPMI medium with varying inhibitor concentrations. Inhibitor stock solutions, mostly at 100 mM, were prepared in DMSO. […] Triplicate wells were prepared for each compound. Negative controls included wells with uninfected red cells (3% hematocrit) in complete RPMI medium.
Culture plates were incubated in a chamber with controlled gas conditions at 37°C. After 48 hours, parasites were quantified using a fluorescence-based assay with SYBR Green dye as previously described ([51]). Lysis buffer containing SYBR Green was added to each well, and plates were incubated at room temperature for 45 minutes and protected from the light. Fluorescence was measured using a microplate reader (POLARstar OPTIMA, BMG Labtech) with excitation at 485 nm and detection at 520 nm. Background fluorescence of uninfected red cells was subtracted, and dose-response curves were plotted against inhibitor concentration. IC50 values were determined using nonlinear regression curve fitting in GraphPad Prism software.

[3] = Plasmodium falciparum, 3D7, 48 h, Supplementary Table 7, benzoylacetonitrile derivatives
[4] = Supplementary Table 7, benzoylacetonitrile derivatives

Chain of recombinant PfUCK (P. falciparum UMP-CMP kinase, PfUCK-Δ23) (Q8I231 entry or part of it, stated change not applied): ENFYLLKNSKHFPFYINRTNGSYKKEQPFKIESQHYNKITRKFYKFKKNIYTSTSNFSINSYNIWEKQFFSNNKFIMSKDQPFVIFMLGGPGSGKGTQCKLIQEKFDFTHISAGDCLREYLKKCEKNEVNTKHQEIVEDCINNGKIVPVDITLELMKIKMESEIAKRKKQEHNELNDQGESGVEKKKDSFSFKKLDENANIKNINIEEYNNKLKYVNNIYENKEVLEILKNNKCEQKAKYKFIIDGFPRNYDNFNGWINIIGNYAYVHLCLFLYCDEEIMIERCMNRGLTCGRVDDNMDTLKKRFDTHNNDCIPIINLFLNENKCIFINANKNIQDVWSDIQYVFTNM

| SMILES | Ki—PfUCK [1] | flux 6 - 18 hps [2] | flux 42 - 48 hps [2] | flux 30 - 36 hps [2] | also measured |
| --- | --- | --- | --- | --- | --- |
| N#CCC(=O)c1ccc(CN2CCOCC2)cc1 [Compound C77] | No inhibition at 1 mM | – | – | – | – |
| N#CCC(=O)c1ccc(Cl)cc1 [Compound C10] | No inhibition at 1 mM | – | – | – | – |
| N=C(N)NCCC[C@H](N)C(=O)O [L-Arginine] | – | 0.072 ± 0.11 mmol/gDW/hr | 0.22 ± 0.35 mmol/gDW/hr | -0.15 ± 0.49 mmol/gDW/hr | – |
| N#CCC(=O)c1cncc(Br)c1 [Compound C67] | – | – | – | – | Ki [1]: 4.38 ± 1.45 µM; IC50 (P. falciparum 3D7; [3]): 531 ± 61.2 µM |
| N#CCC(=O)c1cccc([N+](=O)[O-])c1 [Compound C80] | No inhibition at 1 mM | – | – | – | – |
| CC(C)C[C@H](N)C(=O)O [L-Leucine] | – | 0.28 ± 0.065 mmol/gDW/hr | 0.047 ± 0.10 mmol/gDW/hr | -0.14 ± 0.070 mmol/gDW/hr | – |
| N[C@@H](CC(=O)O)C(=O)O [L-Aspartic acid] | – | 0.0048 ± 0.011 mmol/gDW/hr | 0.019 ± 0.058 mmol/gDW/hr | 0.00 ± 0.029 mmol/gDW/hr | – |
| COC(=O)c1ccc(C(=O)CC#N)cc1 [Compound C9] | insoluble | – | – | – | – |
| N#CCC(=O)c1ccccc1 [Compound C11] | No inhibition at 1 mM | – | – | – | – |
| N#CCC(=O)c1cc(C(F)(F)F)cc(C(F)(F)F)c1 [Compound C83] | – | – | – | – | Ki [1]: 4.66 ± 0.29 µM; IC50 (P. falciparum 3D7; [3]): > 310 µM; IC50 (P. falciparum 3D7; [4]): 317 ± 50.8 µM |
| CC[C@H](C)[C@H](N)C(=O)O [L-Isoleucine] | – | 0.017 ± 0.023 mmol/gDW/hr | 0.081 ± 0.14 mmol/gDW/hr | -0.062 ± 0.14 mmol/gDW/hr | – |
| OC[C@H]1OC(O)[C@H](O)[C@@H](O)[C@@H]1O (stereo partly drawn) [D-Glucose] | – | 1.3 ± 0.82 mmol/gDW/hr | 0.60 ± 0.21 mmol/gDW/hr | 3.2 ± 1.2 mmol/gDW/hr | – |
| N[C@@H](Cc1c[nH]c2ccccc12)C(=O)O [L-Tryptophan] | – | 0.0026 ± 0.0045 mmol/gDW/hr | 0.010 ± 0.024 mmol/gDW/hr | 0.010 ± 0.036 mmol/gDW/hr | – |
| NCC(=O)O [Glycine] | – | -0.014 ± 0.028 mmol/gDW/hr | 0.037 ± 0.17 mmol/gDW/hr | -0.0093 ± 0.12 mmol/gDW/hr | – |
| COc1cccc(C(=O)CC#N)c1 [Compound C65] | no inhibition at 1 mM | – | – | – | – |
| Cc1cccc(C(=O)CC#N)c1 [Compound C66] | No inhibition at 1 mM | – | – | – | IC50 (P. falciparum 3D7; [3]): > 310 µM; IC50 (P. falciparum 3D7; [4]): 310 ± 57.9 µM |
| N#CCC(=O)c1ccc(-c2ccccc2)cc1 [Compound C79] | No inhibition at 1 mM | – | – | – | – |
| NC(=O)C[C@H](N)C(=O)O [L-Asparagine] | – | -0.0094 ± 0.011 mmol/gDW/hr | 0.070 ± 0.17 mmol/gDW/hr | -0.10 ± 0.12 mmol/gDW/hr | – |

| SMILES | Ki—PfUCK [1] | flux 6 - 18 hps [2] | flux 42 - 48 hps [2] | flux 30 - 36 hps [2] | also measured |
| --- | --- | --- | --- | --- | --- |
| NCCCC[C@H](N)C(=O)O [L-Lysine] | – | 0.00 ± 0.064 mmol/gDW/hr | 0.073 ± 0.29 mmol/gDW/hr | 0.038 ± 0.20 mmol/gDW/hr | – |
| N#CCC(=O)c1cc(Cl)cc(Cl)c1 [Compound C62] | No inhibition at 1 mM | – | – | – | – |
| N[C@@H](CO)C(=O)O [L-Serine] | – | -0.019 ± 0.021 mmol/gDW/hr | 0.062 ± 0.11 mmol/gDW/hr | -0.062 ± 0.091 mmol/gDW/hr | – |
| C[C@H](N)C(=O)O [L-Alanine] | – | -0.023 ± 0.017 mmol/gDW/hr | 0.00 ± 0.024 mmol/gDW/hr | -0.041 ± 0.036 mmol/gDW/hr | – |
| NC(=O)CC[C@H](N)C(=O)O [L-Glutamine] | – | 0.00 ± 0.023 mmol/gDW/hr | 0.36 ± 0.72 mmol/gDW/hr | -0.40 ± 0.63 mmol/gDW/hr | – |
| CC(C)[C@H](N)C(=O)O [L-Valine] | – | -0.036 ± 0.098 mmol/gDW/hr | 0.024 ± 0.12 mmol/gDW/hr | -0.0096 ± 0.022 mmol/gDW/hr | – |
| N[C@@H](Cc1ccccc1)C(=O)O [L-Phenylalanine] | – | -0.0099 ± 0.016 mmol/gDW/hr | 0.025 ± 0.023 mmol/gDW/hr | -0.035 ± 0.0086 mmol/gDW/hr | – |
| N#CCC(=O)c1cccc(Br)c1 [Compound C37] | no inhibition at 1 mM | – | – | – | – |
| C=CC(=O)N1CCC(C(=O)NCc2cc(=O)n3ccccc3n2)CC1 [Compound C58] | – | – | – | – | Ki [1]: 2.11 ± 0.21 µM; IC50 (P. falciparum 3D7; Plasmodium falciparum, 3D7, 48 h, Table 5): > 1000 µM |
| N[C@@H](Cc1ccc(O)cc1)C(=O)O [L-Tyrosine] | – | -0.0051 ± 0.0044 mmol/gDW/hr | -0.046 ± 0.17 mmol/gDW/hr | -0.031 ± 0.031 mmol/gDW/hr | – |
| C[C@@H](O)[C@H](N)C(=O)O [L-Threonine] | – | -0.014 ± 0.026 mmol/gDW/hr | 0.028 ± 0.099 mmol/gDW/hr | -0.038 ± 0.050 mmol/gDW/hr | – |
| N#CCC(=O)c1cccc(C(F)(F)F)c1 [Compound C69] | No inhibition at 1 mM | – | – | – | – |
| N[C@@H](CCC(=O)O)C(=O)O [L-Glutamic acid] | – | -0.019 ± 0.0081 mmol/gDW/hr | 0.0047 ± 0.077 mmol/gDW/hr | -0.056 ± 0.024 mmol/gDW/hr | – |
| COc1ccc(C(=O)CC#N)cc1 [Compound C8] | no inhibition at 1 mM | – | – | – | – |
| N[C@@H](Cc1c[nH]cn1)C(=O)O [L-Histidine] | – | -0.0073 ± 0.013 mmol/gDW/hr | 0.066 ± 0.076 mmol/gDW/hr | -0.066 ± 0.095 mmol/gDW/hr | – |
| CSCC[C@H](N)C(=O)O [L-Methionine] | – | 0.0024 ± 0.0082 mmol/gDW/hr | 0.028 ± 0.025 mmol/gDW/hr | -0.028 ± 0.025 mmol/gDW/hr | – |
| N#CCC(=O)c1cccc(Cl)c1Cl [Compound C64] | No inhibition at 1 mM | – | – | – | – |
